Laboratory results as given in patent publication US6211209A, “Method of inhibiting connective tissue degradation” (Warner-Lambert Company, priority 1998, dated 2001).

Legend:
[1] = tested on: bovine nasal cartilage; assay: Bovine nasal cartilage assay: inhibition of IL-1β-induced proteoglycan loss (chondroitin sulfate by 1,9 DMB); type: cell-based; details: Bos taurus; concentration preventing 50% of proteoglycan loss; IL-1β-stimulated cartilage plugs
Description: The BNC (bovine nasal cartilage) assay provides a model for evaluating chrondroprotective compounds that block cartilage degradation through inhibition of enzyme activity or by altering the gene expression of the matrix metalloproteinases such as stromelysin.
The assay is accomplished in two phases. The cartilage plugs are first incubated with IL-1β in the presence of the compounds of the present method. The amount of proteoglycan released is then quantified by measuring chondroitin sulfate present in the media using the 1,9-Dimethylmethylene Blue Assay (1,9 DMB).
Bovine nasal septum is dissected free of surrounding tissue and wiped with 70% alcohol. A sterile cork borer is used to remove 5-mm cartilage disks of 2- to 3-mm thickness. Explants are equilibrated for 96 hours in F-12 supplemented with 10% fetal calf serum (FCS) and antibiotics at 37° C. in a humidified atmosphere of 95% air and 5% CO2. Explants are then rinsed with 1 mL F-12 Nutrient Mixture (without phenol red) in order to remove traces of FCS. Each treatment group is done in triplicate allowing: controls (500 μL F-12 medium +110 μL PBS with 0.1% BSA +7 μL DMSO); IL-1β (500 μL F-12 medium without phenol red +100 μL IL-1β (500 U) +7 μL DMSO +10 μL PBS with 0.1% BSA); and dose responses (10, 1, and 0.1 μM) (F-12 medium without phenol red +100 μL IL-1β (500 U) +7 μL compound dissolved in DMSO +10 μL PBS with 0.1% BSA), to be tested per each 24-well plate. The cartilage plugs are incubated in the presence of conditioned media (IL-1β+compound) for 48 hours. Fresh unconditioned media (no IL-1β or compound) is added and incubated for an additional 24 hours. Both the conditioned and unconditioned media are collected and saved for analysis using the 1,9 DMB assay.
The ability of a compound to inhibit proteoglycan released from the cartilage plugs is quantified by measuring chondroitin sulfate. This is done using the calorimetric 1,9 DMB assay. Depending on the amount of chondroitin sulfate present in the media a color change will occur turning the normally deep blue dye, vivid pink. This color change is measured using a Titertek Multiscan MCC 340 plate reader at 540 nm. A Cetus Pro/Pette is used to speed dilution and pipetting steps. The Cetus uses Sarstedt vials, designed for radioimmune assays, which have been inserted into Sarstedt 96-vial aluminum racks. The first row of 12 slots is left empty in order to accommodate the chondroitin sulfate standards (0.01-0.32 μg/mL shark chondroitin sulfate in 0.1 M phosphate buffer, pH 7.0, containing 0.01 M L-cysteine HCl and 0.05 M EDTA). It is necessary to dilute (1:5, 1:10) the medium before a […] is performed by adding 10 μL of collected media to 290 μL DMF (16 mg dye/1 L of 0.1 M formate buffer, pH 3.5, containing 5 mL ethanol) and reading at […]. Dilutions are performed on both the 48-hour and 72-hour media samples collected and saved earlier. Once the experiment has been completed, in order to determine the total amount of proteoglycan remaining in the plugs, they are subjected to papain digestion. Cartilage explants are digested in 20-mL glass scintillation vials by adding 50 μL papain in 1.0 mL cysteine buffer (0.01 M phosphate buffer, pH 7.0 containing 0.01 M L-cysteine HCl and 0.05 M EDTA). Digested material is diluted (1:60) and chondroitin sulfate values determined using the 1,9 DMB assay.
Determination of chondroitin sulfate in each sample is accomplished by subtracting the constant value determined from the linear regression performed on the standard curve, from the O.D. value for a particular well, and then dividing by the X coefficient calculated from the linear regression done on the standard curve. Each experimental well is split into two samples for determining chondroitin sulfate values, then the two are averaged. […]

[2] = tested on: 92 kDa gelatinase; assay: Gelatin zymography of bovine nasal cartilage conditioned media: expression of 92 kDa gelatinase; type: cell-based
Description: To evaluate the effects of the compounds of the present invention on the expression of 72 kDa and 92 kDa gelatinases, samples obtained from the bovine nasal cartilage study (described above) were subjected to gelatin zymography.
Separating gels (8%) were made by combining 400 μL gelatin (25 mg/mL) with: 2.5 mL Tris (1.5 M); 100 μL SDS (10%); 2.6 mL acrylamide (30%); 10 μL TEMED; 4.6 mL dH2 O; 100 μL ammonium persulfate (10%). Stacking gels (4.5%) were formed by combining: 2.5 mL Tris (0.5 M); 100 μL SDS (10%); 1.5 mL acrylamide (30%); 10 μL TEMED; 5.8 mL dH2 O; 100 μL ammonium persulfate (10%).
Bovine nasal cartilage conditioned media was diluted (1:15) using sample buffer 1X (2% SDS, 15% glycerol, 0.01% bromophenol blue, 0.25M Trizma Base, pH 6.8). Thirty microliters of each of the diluted samples and molecular weight standards were subjected to electrophoresis at 4° C. under constant current conditions (20 mA of current/gel) using Tris/Glycine running buffer (0.5 M Trizma Base, pH 8.8 using glycine, 1% SDS) that was diluted 1:20 before use.
After completion of the electrophoretic procedure, the gel was first washed twice for 15 minutes in 2.5% Triton X-100. The gel was then rinsed with the gel incubation buffer (0.05 M Tris, pH 8.2, 0.005 M CaCl2, 0.5 μM ZnCl2) and incubated overnight in this buffer at 37° C. After the incubation period, the gel was stained for 30 minutes in 0.125% Coomassie and destained using 10% methanol/5% acetic acid destaining solution.

IC50 [1]: 830 nM
specificity of effects (92 kDa versus 72 kDa gelatinase) ([2]; versus 72 kDa gelatinase): specific to 92 kDa
Structure (SMILES): S=c1[nH]nc(-c2ccccc2Nc2ccccc2)o1 [Compound 1, 5-(2-Phenylamino-phenyl)-3H-[1,3,4]oxadiazole-2-thione]
inhibiting expression of IL-1β-induced 92 kDa gelatinase ([2]; various concentrations, IL-1β-induced, FIG. 1): effective in inhibiting expression of IL-1β-induced 92 kDa gelatinase in a dose-dependent manner
